According to patent EP0816375A1, “GLYCOCONJUGATES OF OPIATED SUBSTANCES” (ROLABO SL, priority 1995, dated 1997):

How the values were obtained:
Male Sprague-Dawley rats = experiment: antinociceptive tests: tail flick (tail immersion) test and paw pressure test; format: in vivo; settings: for degree of analgesia: intraperitoneally administered, codeine 5 mg/Kg compared with compound of example 26
Excerpt: The compounds of the invention may be compared with the unmodified parent opiates in standard antinociceptive tests, i.e. in terms of potency and duration of action. For example, phamacological tests may be effected to examine the effects of the compounds of the invention on suppressing pain associated to nocius stimuli induced in laboratory animals. Thus, these compounds can be tested by measuring the time treated animals are insensitive to a given painful stimuli.
In spite of the different classes among the compounds of the invention which can be appreciated in accordance to their chemical structure, all are pain-related substances and therefore can be examined on the tail immersion and paw pressure tests as follows.
Male Sprague-Dawley rats weighing 200 g are used. They are housed singly in a room with controlled temperature 21 °C on a 12h light-dark cycle and given free access to food and water.
The tail flick test, is conducted as described by D'Amour F.E. and Smith D.L. in A method for determining loss of pain sensations, J.Pharmacol. Exp. Ther. 72,74, 1941.
Mechanical nociceptive thresholds are determined by the paw pressure test on the left hind paw as described in the literature (Randall L.O. and Selito J.J. A method for measurement of analgesic activity on inflamed tissue, Arch. Int. Pharmacodyn. Ther. 1957, 11, 409-419.). Pain thresholds are measured with an analgesymeter. The apparatus is set up to apply a force of 0-1000 g increasing from zero at a rate of 64 g/s. The nociceptive threshold is taken as the point at which the rat vocalize or struggle vigorously.

[1] = blood of patients taking morphine; cited from earlier work
[2] = cited from earlier work; for analgesic activity: compared with the parent drug morphine

| SMILES | degree of analgesia (Male Sprague-Dawley rats) | concentration in blood relative to morphine [1] | analgesic activity [2] | further results |
| --- | --- | --- | --- | --- |
| CCCCCCCCNC(=O)[C@H]1O[C@@H](Oc2ccc3c4c2O[C@H]2[C@@H](O)C=C[C@H]5[C@@H](C3)N(C)CC[C@@]452)[C@H](O)[C@@H](O)[C@@H]1O [Example 1, 3-Morphinyl n-octyl-(β-D-glucopyranosyl)-uronamide acetate] |  |  |  | analgesia (Male Sprague-Dawley rats; intraperitoneal administration, dosis of 0.1 mg/Kg, maximal antinociceptive response): 100% |
| COc1ccc2c3c1O[C@H]1[C@@H](O[C@@H]4O[C@H](CO)[C@@H](O)[C@H](O)[C@H]4O)C=C[C@H]4[C@@H](C2)N(C)CC[C@@]341 [Example 26, 6-Codeinyl-β-D-glucopyranoside acetate] | the same degree of analgesia |  |  |  |
| CN1CC[C@]23c4c5ccc(O[C@@H]6O[C@H](C(=O)O)[C@@H](O)[C@H](O)[C@H]6O)c4O[C@H]2[C@@H](O)C=C[C@H]3[C@H]1C5 [Example M3G, Morphine 3-glucuronide] |  | approximately 20 fold | not analgesic | analgesia (Male Sprague-Dawley rats; intraperitoneal administration, dosis of 1 mg/Kg, same effect as morphine 5 mg/Kg): 65-75% |
| CN1CC[C@]23c4c5ccc(O)c4O[C@H]2[C@@H](O[C@@H]2O[C@H](C(=O)O)[C@@H](O)[C@H](O)[C@H]2O)C=C[C@H]3[C@H]1C5 [Example M6G, Morphine 6-glucuronide] |  | two fold higher than morphine | several times more active than the parent drug | analgesic activity relative to morphine ([2]; injected intrathecally): much more active than morphine |
| COc1ccc2c3c1O[C@H]1[C@@H](O)C=C[C@H]4[C@@H](C2)N(C)CC[C@@]341 [codeine] | the same degree of analgesia as compound of example 26 |  |  |  |
| CN1CC[C@]23c4c5ccc(O)c4O[C@H]2[C@@H](O)C=C[C@H]3[C@H]1C5 [morphine] |  |  |  | analgesia (Male Sprague-Dawley rats; rat, in vivo, ip, 5 mg/kg): 65-75% |
